The numbers were not newly measured in patent US9150582B2, “Composition and method for neuropeptide S receptor (NPSR) antagonists” (RESEARCH TRIANGLE INSTITUTE, priority 2011, dated 2015), which cites them from elsewhere.

The test system of data set [1] is mice. Conditions: elevated plus maze, light dark box, marble burying.
The test system of data set [2] is mice.
The conditions of data set [3]: i.c.v.
For data set [4], the system named is mice. Conditions: i.c.v.
Data set [5] concerns basolateral amygdala (BLA). To be noted: 0.1 nM injected into BLA.
Another data set concerns the target T1, NPSR-C0Alt (Homo sapiens, UniProt Q6W5P4).
T1 sequence (Q6W5P4 1-377 isoform Q6W5P4-4): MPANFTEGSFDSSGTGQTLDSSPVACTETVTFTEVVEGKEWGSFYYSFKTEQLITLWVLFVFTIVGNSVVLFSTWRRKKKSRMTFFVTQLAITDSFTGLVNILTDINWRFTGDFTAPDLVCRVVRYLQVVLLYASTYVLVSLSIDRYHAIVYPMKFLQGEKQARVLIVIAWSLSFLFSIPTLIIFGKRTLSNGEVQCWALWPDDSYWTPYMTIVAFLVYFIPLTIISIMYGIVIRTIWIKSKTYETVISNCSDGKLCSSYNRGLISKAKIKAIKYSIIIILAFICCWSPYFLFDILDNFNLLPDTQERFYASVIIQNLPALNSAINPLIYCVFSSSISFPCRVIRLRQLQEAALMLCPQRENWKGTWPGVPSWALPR
To be noted: functional assay.

The next data set addresses T2, NPSR Ile^107 variant (Homo sapiens, UniProt Q6W5P4, N107I).
T2 sequence (Q6W5P4 1-371 N107I): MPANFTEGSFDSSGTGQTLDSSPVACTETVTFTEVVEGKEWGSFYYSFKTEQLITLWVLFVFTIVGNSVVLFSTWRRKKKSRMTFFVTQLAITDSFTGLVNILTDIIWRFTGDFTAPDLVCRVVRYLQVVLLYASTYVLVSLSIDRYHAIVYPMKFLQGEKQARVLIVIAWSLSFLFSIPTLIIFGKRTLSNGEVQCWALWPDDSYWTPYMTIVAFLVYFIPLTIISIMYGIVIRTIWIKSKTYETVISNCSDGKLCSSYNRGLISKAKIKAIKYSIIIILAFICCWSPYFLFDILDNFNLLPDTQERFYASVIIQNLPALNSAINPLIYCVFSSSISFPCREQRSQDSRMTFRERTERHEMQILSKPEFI
Conditions: calcium flux.

The subject of data set [6] is mice. To be noted: i.c.v., habituated and naive mice.
Data set [7] has as its system mice. To be noted: 0.1 nMol NPS.

Entries after “also recorded” stand apart in the source; their conditions may differ.

Consider “NPS: Human Neuropeptide S, 20 residue peptide SFRNGVGTGMKKTSFQRAKS (SEQ ID NO: 1), agonist of NPSR (Human)”, for which, in the data set on mice [1], the anxiolytic-like behaviors entry was “anxiolytic-like behaviors”. For the same substance, the “fear response (freezing behavior), administration pre-testing” value with mice [2] (NPS given pre-testing) is “decreased the fear response”. The “fear response, administration pre-training” value with mice [2] (NPS given pre-training) was “no effect on fear response”. Besides, the “performance in novel recognition assays” value in data set [3] is “dose-dependently improves performance”. In addition, in the data set with mice [4], the “formerly extinguished cocaine seeking behaviors” value was “dose-dependently increased”. In data set [5], the “anxiolytic activity at low dose” value is reported as “No anxiolytic activity was observed” and the contextual fear memories entry is reported as “significantly reduced contextual fear memories”. Besides, the “potency at NPSR-C0Alt, lower versus the 107I variant” value with NPSR-C0Alt is listed as 30 fold. The “enhancement in functional sensitivity, Ile107 variant over Asn107” value with NPSR Ile^107 variant is “five to ten fold enhancement”. In addition, the locomotor activity entry in the data set with mice [6] is reported as “increased locomotor activity; also recorded: increase in locomotor activity”. The “amount of stage 1 and 2 slow wave sleep and REM sleep” value in the data set on mice [7] (compared to saline) was “significantly reduced”. The “first hour of wakefulness” value with mice [7] (mice, saline 45%) is given as 69%.
